Laboratory results from patent US6399542B1, “Alkoxyimino-substituted bicyclic compounds compositions containing the same and method of making such compounds” (Agro-Kanesho Co., Ltd., priority 1997, dated 2002).
Like-named read-outs stand apart in the source and are kept apart here.

Legend:
Erysiphe graminis = experiment: Effects on Barley powdery mildew (preventive spray test); format: in vivo; settings: lesions counted seven days after inoculation
Puccinia recondita = experiment: Effect on Wheat brown rust (preventive spray test); format: in vivo; settings: 7 days after inoculation
[1] = test system: Psecidoperonospora cubensis; experiment: Effect on Cucumber downy mildew (preventive spray test); format: in vivo; settings: 7 days after inoculation
Pyricularia oryzae = format: in vivo; settings: Rice blast, 7 days after inoculation
Chochliobolus miyabeanus = experiment: Effect on Rice brown spot (preventive spray test); format: in vivo; settings: 7 days after inoculation
Rhizoctonia solani = experiment: Effect on Rice sheath blight (preventive spray test); settings: 10 days after inoculation
Method: An emulsion of a compound of the present invention prepared in Preparation Example 2 was diluted with water and uniformly sprayed on 5 rice plant seedlings (variety: Koshihikari) in 4.5-leaf stage in each plastic pot having a diameter of 6 cm, with a spray gun. One day after the spraying, the seedlings were bundled at the second sheath with a string. Colonies of Rhizoctonia solani previously cultured in PSA culture medium were bored with a cork borer to obtain pieces having a diameter of 4 mm. The piece was put in the bundle, and kept in a high-humidity room at 25° C. until the examination. Ten days after the inoculation, the degree of the disease was examined, and the preventive rate (effect of inhibiting the disease) was calculated on the basis of the following standard:
Preventive rate=[1-D′/C′]×100
C′: Severity in untreated section
D′: Severity in treated section.

Phytophthora infestans = format: in vivo; settings: Tomato late blight, 5 days after inoculation
Puccinia recondite = experiment: Penetration and translocation in wheat leaves (covered leaf tip, brown rust); format: in vivo; settings: conc. of active ingredient 200 ppm
[2] = test system: Pseudoperonospora cubenis; experiment: Penetration and translocation in cucumber leaf (drop on back of leaf, downy mildew); format: in vivo; settings: 10 μl drop on back of leaf, conc. of active ingredient 200 ppm, disease-free area 5 days after the spraying
Method: Four points were marked at random on the first leaf of each cucumber seedling (variety: Shogoin aonaga fushinari) in two-leaf stage in each pot having a diameter of 6 cm. […] The leaf was kept in a greenhouse for one day and then uniformly inoculated with a zoospore suspension of Pseudoperonospora cubenis by means of a spray gun, then left to stand in a high-humidity room at 24° C. for 24 hours, and kept in a greenhouse. The area of the disease-free part 5 days after the spraying was represented in terms of the index.
3: At least 40% of the area of the leaf was free from the disease.
2: 20 to 40% of the area of the leaf was free from the disease.
1: An area larger than the spot of the drop but smaller than 20% of the area of the leaf was free from the disease.
0: Only the spot of the drop was free from the disease.

Botrytis cinerea = experiment: Effect on Cucumber gray mold (cotyledon paper disc test); format: in vivo; settings: 3 days after inoculation
Aphis gossypii = experiment: Effect on Aphis gossypii (cucumber seedling spray); settings: Test Example 15
Text: 5 or 6 imagoes of Aphis gossypii were released on a cucumber seedling of 1- or 2-leaf stage in a pot. Two days after, the larvae were confirmed and the imagoes were removed. Then 500 ppm or 50 ppm of a compound of the present invention in the form of an emulsion diluted with water was sprayed on the cucumber seedling. After air-drying, the leaves were cut and put in a plastic vessel having a size of 9 cm (inner diameter)×6.5 cm (depth). The lid was put on the vessel, which was then left in a room kept at 26° C. for 48 hours and then the numbers of the living imagoes and dead ones were counted, and the rate of dead imagoes was calculated (repetition: twice).

Tetranychus kanzawai = experiment: Effect on Tetranychus kanzawai (green bean leaf spray); settings: Test Example 11
Method: A piece (3 cm×5 cm) of green bean leaf was placed with the backside up, on a filter paper wet with water so as to prevent the leaf from drying, and inoculated with 10 female imagoes of Tetranychus kanzawai per a leaf. 24 hours after the inoculation, 500 ppm of a compound of the present invention in the form of an emulsion diluted with water was sprayed thereon. After air-drying, the piece was left to stand in a room kept at 26° C. for 24 hours and then the numbers of the living imagoes and dead ones were counted, and the rate of dead imagoes was calculated (repetition: twice).

Spodoptera litura = experiment: Effect on Spodoptera litura (chinese cabbage leaf spray); settings: Test Example 12
Method: 500 ppm of a compound of the present invention in the form of an emulsion diluted with water was sprayed on a leaf of chinese cabbage seedling in 3- to 4-leaf stage. After air-drying, the leaf was placed in a plastic vessel having a size of 21 cm(length)×13 cm(width)×3 cm (depth). Ten larvae of Spodoptera litura of the third instar were put therein. The lid was put on the vessel, which was then left in a room kept at 26° C. for 48 hours and then the numbers of the living imagoes and dead ones were counted, and the rate of dead imagoes was calculated (repetition: twice).

Plutella xylostella = experiment: Effect on Plutella xylostella (Chinese cabbage leaf spray); settings: Test Example 13
Method: 500 ppm or 50 ppm of a compound of the present invention in the form of an emulsion diluted with water was sprayed on a leaf of Chinese cabbage seedling in 3- to 4-leaf stage. After air-drying, the leaf was placed in a plastic vessel having a size of 9 cm (inner diameter)×6.5 cm (depth). Ten larvae of Plutella xylostella of the third instar were put therein. The lid was put on the vessel, which was then left in a room kept at 26° C. for 48 hours and then the numbers of the living imagoes and dead ones were counted, and the rate of dead imagoes was calculated (repetition: twice).

Nephotettix cincticeps = experiment: Effect on Nephotettix cincticeps (rice seedling immersion); settings: Test Example 14
Method: Rice plant seedlings were immersed in 500 ppm or 50 ppm of a compound of the present invention in the form of an emulsion diluted with water for 10 seconds. After air-drying, the root of each seedling was covered with a wet absorbent cotton and the seedling was put in a test tube. Ten larvae of Nephotettix cincticeps of the second instar were put therein. The opening of the test tube was covered with a gauze, and the test tube was then left in a room kept at 26° C. for 48 hours and then the numbers of the living imagoes and dead ones were counted, and the rate of dead imagoes was calculated (repetition: twice).

[3] = conc. of active ingredient 20 ppm
[4] = conc. of active ingredient 100 ppm
[5] = conc. of active ingredient 4 ppm

SMILES | Preventive rate (%) (Erysiphe graminis; [3]) | Preventive rate (%) (Erysiphe graminis; [4]) | Preventive rate (%) (Puccinia recondita; [3]) | Preventive rate (%) (Puccinia recondita; [4]) | Preventive rate (%) [1, 3] [%] | Preventive rate (%) [1, 4] [%] | Preventive rate (%) (Pyricularia oryzae; [3]) | Preventive rate (%) (Pyricularia oryzae; [4]) | Preventive rate (%) (Chochliobolus miyabeanus; [3]) | Preventive rate (%) (Chochliobolus miyabeanus; [4]) | melting point [°C] | Preventive rate (%) (Rhizoctonia solani; [3]) | Preventive rate (%) (Rhizoctonia solani; [4]) | Preventive rate (%) (Phytophthora infestans; [3]) | Preventive rate (%) (Phytophthora infestans; [4]) | Number of lesions formed within the mark to the tip (Puccinia recondite) | Preventive rate (%) (Puccinia recondite) | Rate of the translocation perfect preventive conc. (%) (Puccinia recondite) | Index [2] | Preventive rate (%) (Botrytis cinerea; [3]) | other results
CON=C1COc2cc(OCc3ccccc3/C(=N\OC)C(=O)OC)ccc21 [a-4, (E) methyl methoxyimino-[2-(3-methoxyimino-2,3-dihydrobenzofuran-6-yloxymethyl)-phenyl]acetate] | 93 | 100 | 94 | 98 | 94 | 94 | 86 | 90 | 75 | 80 | 108 to 110 | 93 | 92 |  |  |  |  |  |  |  | 
CNC(=O)/C(=N/OC)c1ccccc1COc1ccc2c(c1)OCC2=NOC [a-5, (E) methoxyimino-[2-(3-methoxyimino-2,3-dihydro-benzofuran-6-yloxymethyl)phenyl]-N-methyl-acetamide] | 95 | 100 | 100 | 100 | 88 | 94 | 90 | 96 | 89 | 96 | 143 to 145 | 70 | 84 | 97 | 100 | 0 | 100 | 100 | 3 (At least 40% of the area of the leaf was free from the disease.) |  | 
CON=C1COc2cc(OCc3ccccc3N(OC)C(=O)OC)ccc21 [a-7, methyl N-[2-(3-methoxyimino-2,3-dihydro-benzofuran-6-yloxymethyl)-phenyl]-N-methoxycarbamate] |  |  | 99 | 100 | 94 | 97 |  |  |  |  | 102 to 103 |  |  |  |  |  |  |  |  | 56 | Preventive rate (%) (Botrytis cinerea; [4]): 97%
CNC(=O)N(OC)c1ccccc1COc1ccc2c(c1)OCC2=NOC [a-8, N-[2-(3-methoxyimino-2,3-dihydrobenzofuran-6-yloxymethyl)phenyl]-N-methoxy-N′-methylurea] |  |  | 99 | 100 | 88 | 94 |  |  |  |  | 109 to 112 |  |  |  |  |  |  |  |  |  | Preventive rate (%) [1, 5]: 75%
CNC(=O)/C(=N/OC)c1ccccc1COc1ccc2c(c1C)OCC2=NOC [a-16] | 100 | 100 | 100 | 100 | 100 | 100 | 89 | 96 | 95 | 98 |  | 50 | 92 | 97 | 100 | 0 | 100 | 100 | 3 (At least 40% of the area of the leaf was free from the disease.) | 84 | Preventive rate (%) (Puccinia recondita; [5]): 100%; Preventive rate (%) (Phytophthora infestans; [5]): 91%; Preventive rate (%) [1, 5]: 100%; Preventive rate (%) (Pyricularia oryzae; [5]): 86%; Preventive rate (%) (Chochliobolus miyabeanus; [5]): 75%; Preventive rate (%) (Botrytis cinerea; [5]): 42%; Preventive rate (%) (Botrytis cinerea; [4]): 87%
CCON=C1COc2cc(OCc3ccccc3/C(=N\OC)C(=O)NC)ccc21 [a-37, (E) methoxyimino-[2-(3-ethoxyimino-2,3-dihydrobenzofuran-6-yloxymethyl)-phenyl]-N-methyl-acetamide] |  |  | 99 | 100 | 100 | 100 |  |  |  |  | 110 to 113 |  |  |  |  |  |  |  |  | 100 | Preventive rate (%) (Botrytis cinerea; [4]): 100%
CNC(=O)C(=NOC)c1ccccc1COc1ccc2c(c1)OCCC2=NOC [c-5] |  |  | 96 | 100 | 100 | 100 | 97 | 99 | 35 | 100 |  | 39 | 89 | 88 | 94 | 0 | 100 | 100 | 3 (At least 40% of the area of the leaf was free from the disease.) |  | 
CO/N=C(\C(=O)OC)c1ccccc1COc1ccc2c(c1)CCCC2 [comparative compound (2), 2-methoxyimino-2-[2-(5,6,7,8-tetrahydronaphthalene-2-yloxymethyl)phenyl]-methylacetate, reference compound] | 59 | 100 | 70 | 100 | 70 | 93 | 49 | 55 | 20 | 85 |  | 0 | 0 | 38 | 100 |  |  |  |  | 11 | Preventive rate (%) (Botrytis cinerea; [4]): 21%; effect of controlling insect pests (Aphis gossypii): did not exhibit the effect of controlling insect pests; effect of controlling insect pests (Tetranychus kanzawai): did not exhibit the effect of controlling insect pests; effect of controlling insect pests (Spodoptera litura): did not exhibit the effect of controlling insect pests; effect of controlling insect pests (Plutella xylostella): did not exhibit the effect of controlling insect pests; effect of controlling insect pests (Nephotettix cincticeps): did not exhibit the effect of controlling insect pests
CNC(=O)C(=NOC)c1ccccc1COc1ccc2c(c1)CCC2=NOC [e-5] | 95 | 100 | 99 | 100 | 100 | 100 | 97 | 100 | 84 | 90 |  |  |  | 95 | 98 | 0 | 100 | 100 | 3 (At least 40% of the area of the leaf was free from the disease.) |  | 
